Reference: patent US20250161278A1, “CBL-B INHIBITOR, COMPOSITIONS COMPRISING A CBL-B INHIBITOR IN A METHOD OF TREATING A DISEASE ASSOCIATED WITH CELL PROLIFERATION” (HOTSPOT THERAPEUTICS, INC., priority 2022, published 2025)

Tests used:
CT26 tumor cells [1] = assay: Subcutaneous CT26 murine colorectal cancer model (Example 5), tumor growth inhibition; assay type: in vivo, mouse; details: CT26 s.c., female BALB/c mice
Procedure: (§1) The objective of this study was to evaluate the in vivo anti-tumor efficacy of Compound 85 in the subcutaneous CT26 murine colorectal cancer model in female BALB/c mice. Compound 85 test particle was delivered via PO when tumors reached 80 mm^3. The compound was assessed at six different dose levels (3 mpk, l0 mpk, 30 mpk for BID and 6 mpk, 20 mpk and 60 mpk for QD). Tumor volumes and body weight were measured twice per week after the initiation of treatment. Compound 85 level was assessed in the plasma and tumor at the end of the study.
The CT26 tumor cells were maintained in vitro with RPMI-1640 medium supplemented with 10% fetal bovine serum at 37° C. in an atmosphere of 5% CO2. The cells in exponential growth phase were harvested and quantitated by cell counter before tumor inoculation.
Each mouse was inoculated subcutaneously in the right lower flank region with CT26 tumor cells (5×10^5) in 0.1 ml of PBS.
The randomization started when the mean tumor size reaches approximately 80.7 mm^3. In total, 80 mice were enrolled in the study and randomly allocated into 8 study groups, with 10 mice per group. Randomization was performed based on the “Matched distribution” method (Study Director™ software, version 3.1.399.19). The date of randomization was denoted as day 0.
(§2) After tumor inoculation, the animals were checked daily for morbidity and mortality. During routine monitoring, the animals were checked for any effects of tumor growth and treatments on behavior such as mobility, food and water consumption, body weight gain/loss (Body weights would be measured twice per week after randomization), eye/hair matting and any other abnormalities. Mortality and observed clinical signs were recorded for individual animals in detail.
(§3) Tumor volumes were measured twice per week after randomization in two dimensions using a caliper, and the volume was expressed in mm3 using the formula: V=(L×W×W)/2, where V is tumor volume, L is tumor length (the longest tumor dimension) and W is tumor width (the longest tumor dimension perpendicular to L). Dosing as well as tumor and body weight measurements were conducted in a Laminar Flow Cabinet.

CT26 tumor cells [2] = assay: Subcutaneous CT26 murine colorectal cancer model (Example 6), tumor growth inhibition; assay type: in vivo, mouse; details: day 13, CT26 s.c., female BALB/c mice
Procedure: The objective of this study was to evaluate preclinically the in vivo dose of test compounds in the treatment of the subcutaneous CT26 murine colorectal cancer model in female BALB/c mice.
The CT26 tumor cells were maintained in vitro with RPMI-1640 medium supplemented with 10% fetal bovine serum at 37° C. in an atmosphere of 5% CO2 in air. The cells in exponential growth phase was harvested and quantitated by cell counter before tumor inoculation.
Each mouse was inoculated subcutaneously in the right lower flank region with CT26 tumor cells (5×10^5) in 0.1 ml of PBS for tumor development.
The randomization started when the mean tumor size reaches approximately 89.91 mm^3. Totally 80 mice were enrolled in the study and randomly allocated to 8 study groups, with 10 mice per group. Randomization was performed based on “Matched distribution” method (Study Director™ software, version 3.1.399.19). The date of randomization was denoted as day 0 (Jul. 8, 2021).
as §2, §3
Tumor growth inhibition (TGI): TGI % is an indication of antitumor activity, and expressed as: TGI (%)=100×(1−T/C). T and C are the mean tumor volume (or weight) of the treated and control groups, respectively, on a given day.
The treatment was performed for 14 days. There was no extension of the treatment, the study was terminated on Day 13 post dosing initiation.
To compare tumor volumes of different groups at a pre-specified day, Bartlett's test was used to check the assumption of homogeneity of variance across all groups. When the p-value of Bartlett's test was >=0.05, we ran one-way ANOVA to test overall equality of means across all groups. If the p-value of the one-way ANOVA was <0.05, post hoc testing was performed by running Tukey's HSD (honest significant difference) tests for all pairwise comparisons, and Dunnett's tests for comparing each treatment group with the vehicle group. […]

H22 tumor cells = assay: Subcutaneous H22 murine liver cancer model, tumor growth inhibition; assay type: in vivo, mouse; details: for TGI (%): H22 s.c., female BALB/c mice
Procedure: The objective of this pharmacology study was to evaluate the anti-tumor growth efficacy of Compound 85 in the treatment of the subcutaneous H22 murine liver cancer model in female BALB/c mice. Compound 85 test particles were delivered via PO when the average tumor volume reached approximately 80 mm^3. […] Tumor volumes and body weight were measured three times per week after the initiation of treatment.
The H22 tumor cells were maintained in vitro with RPMI-1640 medium supplemented with 10% fetal bovine serum at 37° C. in an atmosphere of 5% CO2. Cells in the exponential growth phase were harvested and quantified by cell counter before tumor inoculation.
Each mouse was inoculated subcutaneously in the right front flank region with H22 tumor cells (1×10e6) in 0.1 ml of PBS for tumor development.
The randomization started when the mean tumor size reaches approximately 79.89 mm^A3. […] Randomization was performed based on “Matched distribution” method/“Stratified” method (Study Director™ software, version 3.1.399.19)/randomized block design. The date of randomization was denoted as day 0.
as §2, with “were” for “would be”, “thrice” for “twice”
as §3, with “three times” for “twice”, “Dosing,” for “Dosing”, “measurements,” for “measurements”
Tumor growth inhibition (TGI): TGI % is an indication of antitumor activity, expressed as: TGI (%)=100×(1−T/C). T and C are the mean tumor volume (or weight) of the treated and control groups on a given day.
The treatment was performed for 21 days and the study was terminated on day 20 post dosing initiation.

[3] = Body weight and mortality monitoring in CT26 model (Example 5); assay type: in vivo
Procedure: as §1, §2
The body weights and tumor volumes were measured by using Study Director™ software (version 3.1.399.19).

Structure (SMILES) | TGI(%) on Day 18 (CT26 tumor cells [1]; 30 mpk BID p.o.) | TGI (%) (CT26 tumor cells [2]; 30 mg/kg BID p.o.) | TGI (%) (CT26 tumor cells [2]; 60 mg/kg BID p.o.) | TGI (%) (CT26 tumor cells [2]; 100 mg/kg BID p.o.) | TGI (%) (H22 tumor cells; 60 mpk BID p.o.) | TGI(%) on Day 18 (CT26 tumor cells [1]; 3 mpk BID p.o.) | TGI(%) on Day 18 (CT26 tumor cells [1]; 6 mpk QD p.o.) | TGI(%) on Day 18 (CT26 tumor cells [1]; 10 mpk BID p.o.) | TGI(%) on Day 18 (CT26 tumor cells [1]; 20 mpk QD p.o.) | TGI(%) on Day 18 (CT26 tumor cells [1]; 60 mpk QD p.o.) | loss of average body weight ([3]; day 3, 30 mpk BID p.o.) | loss of average body weight ([3]; day 3, 60 mpk QD p.o.) | mortality ([3]; mouse, in vivo) | TGI (%) (H22 tumor cells; 2 mpk QD p.o.) | TGI (%) (H22 tumor cells; 10 mpk QD p.o.) | TGI (%) (H22 tumor cells; 20 mpk QD p.o.) | TGI (%) (H22 tumor cells; 40 mpk QD p.o.) | minimal efficacious dose (lowest dose showing significant tumor inhibition) (H22 tumor cells; QD p.o., single agent) | maximum TGI (H22 tumor cells; high doses, 20 mpk or 40 mpk QD)
C[C@H]1CCCN(Cc2cc(C(F)(F)F)c3cn(-c4cccc(C5(Cc6nncn6C)COC5)c4)c(=O)n3c2)C1 [Compound 29] | 17.3% | 10.78% | 41.76% | 50.83% | 63.97% |  |  |  |  |  |  |  |  |  |  |  |  |  | 
C[C@H]1CCCN(Cc2cc(C(F)(F)F)c3cn(-c4cncc([C@H](c5nncn5C)C5CCC5)c4)c(=O)n3c2)C1 [Compound 85] | 37.9% | 43.02% |  |  |  | 18.7% | 3.8% | 24.4% | 22.2% | 33.9% | less than 5% | less than 5% | No mortality was reported | 19.56% | 41.21% | 68.54% | 64.65% | 6 mpk | ~65%
